Patent publication US7109173B1, “Transport of nucleotides, oligonucleotides and polynucleotides into the cytoplasm and nucleus of cells by peptides” (priority 2004, dated 2006)

Tests used:
Type in all cases: cell-based
cells = assay: Determination of cellular loci of administered polynucleotides by differential centrifugation; set-up: Absorbance, Nuclear Fraction / Absorbance, Microsomal Fraction: dose or concentration left out as unconfirmed; conditions: for μ grams, Microsomal Fraction / μ grams, Nuclear Fraction: calculated after subtracting zero time control values from experimental values; for Absorbance, Microsomal Fraction / Absorbance, Nuclear Fraction: observed values, absorbance at 260 nm
Procedure: (§1) Fibroblasts cells were incubated for 24 hrs with and without fetal calf serum. Cells harvested at zero time served as controls. They were subjected to all of the analyses performed on experimental cells. Cells were harvested as described in ‘section V. Methods and Materials’. Macrophages were treated the same as previously described for fibroblasts except human serum was used in place of fetal calf serum and they were not cultured without serum. Cells were incubated with predetermined amounts of nucleotides with and without peptide Incubations were stopped at zero time and 24 hrs. The media harvested at zero and 24 hrs was saved for analysis for peptides and nucleotides. Cells were washed and harvested as described previously. The wash was saved for analysis of peptides and nucleotides. Some cells were sonicated and aliquots analyzed for radioactivity by a liquid scintillation spectrometer (counter). […] Spectrophotometric analysis quantifies the amount of nucleotide retained. VI: Extraction of lipids—The non-saponifiable lipids and free fatty acids were extracted using petroleum ether (30–60° C.). Neutral lipids were extracted with petroleum ether without prior saponification. […] The latter two methods, when used, necessitate extensive chromatographic separation of mevalonate from the phospholipids and neutral lipids. […] Control experiments in which the reaction was stopped at zero time and in which the enzyme preparation is omitted show no radioactivity is extracted when the usual incubation, saponification, and isolation procedures were performed.
Cells were cultured and treated as described under Methods, above. Cells were subjected to differential centrifugation. μ grams calculated after correction of values by subtracting zero time control values from experimental values. No significant absorbances of nucleotides were detected in the experimental samples in the mitochondrial-lysosomal fraction when zero time control values were subtracted from the experimental values. Absorbance was measured spectrophotometrically at […]. […] In a preferred embodiment of this invention, the target cells are smooth muscle cells and macrophages which are found in atheromatous plaques. The plaques are a focal thickening of the intima caused by proliferation of smooth muscle cells.

Fibroblasts = assay: Uptake of homopolymers by fibroblasts, single cell fluorescence analysis with syto-13; conditions: fibroblasts stained with syto-13, relative intensity ± standard deviation, n = number of cells
Procedure: as §1
(§2) a) Isolating the peptides then b) incubating the peptide sample with predetermined amounts of nucleotides with and without peptides. After this, the nucleotides are transferred into the cells. Cells were treated with homopolymers in the presence and absence of the peptides. Uptake was determined as described under Methods and Materials, above. The polynucleotides were quantified spectrophotometrically and by single cell fluorescence analysis using syto-13 (Molecular Probes).
Fibroblasts were cultured as described under V.Methods and Materials. Cells were stained with syto-13 (Molecular Probes). Single cell fluorescence analysis was performed using a Zeiss microsope photometer. Values are relative intensity ±standard deviation. N=number of cells.

human fibroblasts = assay: Uptake of polynucleotides in the presence and absence of peptides by human fibroblasts, spectrophotometric; set-up: Absorbance, Peptides / Absorbance, Without Peptides: dose or concentration left out as unconfirmed; conditions: 24 hrs minus zero time values; for μ grams, Peptides / Absorbance, Peptides: with peptides; for Absorbance, Peptides / Absorbance, Without Peptides: absorbance at 260 nm, ± standard deviation
Procedure: 1. Analysis of control cells stopped at zero time gives the original content of nucleotides of interest.
2. Analysis of control cells stopped after 24 hour incubation gives the change in nucleotide content during the 24 hr period. That is, 24 hr content of control cells minus zero time control cells nucleotide content equals net change.
3. Analysis of nucleotide treated cells at zero time incubation gives the initial content and/or bound nucleotides.
4. Analysis of nucleotide treated cells at 24 hour time gives the amount present after 24 hours.
5. 24 hour content minus zero time content gives the net change in nucleotide content.
6. The net content of the 24 hr nucleotide treated cells minus the zero time content of nucleotides gives the amount transported by the peptides.
7. The net values are previously corrected for the amount in the original media and wash for the treated cells.
as §1, §2
The cells were cultured as described under Methods, above. The experiments were stopped at zero time and 24 hours. Values are obtained by subtracting initial zero time values from those of 24 hrs. Values are ±standard deviation. Absorbance measured spectrophotometrically at […].

With Polyadenylic acid the “μ grams, Microsomal Fraction” value (cells) was 155 μ grams, the “Absorbance, Microsomal Fraction” value (cells) was 0.242 ± 0.038 and the “μ grams, Nuclear Fraction” value (cells) was 59.1 μ grams. The “Absorbance, Nuclear Fraction” value (cells) was 0.265 ± 0.061, the “Fluorescence Relative Intensity, Control” value (Fibroblasts) was 11.7 ± 3.8 (n = 22) and the “Fluorescence Relative Intensity, Experimental” value (Fibroblasts) was 27.4 ± 7.5 (n = 23). For the same substance, the “μ grams, Peptides” value (human fibroblasts) was 252 μ grams, the “Absorbance, Peptides” value (human fibroblasts) was 0.200 ± 0.101 and the “μ grams, Without Peptides” value (human fibroblasts) was 59 μ grams. The “Absorbance, Without Peptides” value (human fibroblasts) was 0.047 ± 0.025.
In the case of Polycytidylic acid, the “μ grams, Microsomal Fraction” value (cells) is reported as 153 μ grams, the “Absorbance, Microsomal Fraction” value (cells) is reported as 0.236 ± 0.025 and the “μ grams, Nuclear Fraction” value (cells) is reported as 107.4 μ grams. The “Absorbance, Nuclear Fraction” value (cells) was 0.254 ± 0.026, the “Fluorescence Relative Intensity, Control” value (Fibroblasts) was 3.3 ± 0.6 (n = 14) and the “Fluorescence Relative Intensity, Experimental” value (Fibroblasts) was 14.9 ± 1.6 (n = 14). The “μ grams, Peptides” value (human fibroblasts) was 380 μ grams, the “Absorbance, Peptides” value (human fibroblasts) was 0.209 ± 0.028 and the “μ grams, Without Peptides” value (human fibroblasts) was 94 μ grams. The “Absorbance, Without Peptides” value (human fibroblasts) was 0.052 ± 0.031.
Polyguanylic acid was tested, and the “μ grams, Nuclear Fraction” value (cells) was 747.7 μ grams, the “Absorbance, Nuclear Fraction” value (cells) was 0.354 ± 0.030 and the “Fluorescence Relative Intensity, Control” value (Fibroblasts) was 13.1 ± 3.1 (n = 24). The “Fluorescence Relative Intensity, Experimental” value (Fibroblasts) was 39.2 ± 9.5 (n = 17), the “μ grams, Peptides” value (human fibroblasts) was 1160 μ grams and the “Absorbance, Peptides” value (human fibroblasts) was 0.444 ± 0.058. The “μ grams, Without Peptides” value (human fibroblasts) was 580 μ grams and the “Absorbance, Without Peptides” value (human fibroblasts) was 0.223 ± 0.084.
Polyuridylic acid was tested, and the “μ grams, Microsomal Fraction” value (cells) was 186 μ grams, the “Absorbance, Microsomal Fraction” value (cells) was 0.313 ± 0.030 and the “μ grams, Nuclear Fraction” value (cells) was 246.1 μ grams. For the same substance, the “Absorbance, Nuclear Fraction” value (cells) was 0.326 ± 0.050, the “Fluorescence Relative Intensity, Control” value (Fibroblasts) was 4.4 ± 1.3 (n = 22) and the “Fluorescence Relative Intensity, Experimental” value (Fibroblasts) was 16.8 ± 4.6 (n = 23). The “μ grams, Peptides” value (human fibroblasts) was 436 μ grams, the “Absorbance, Peptides” value (human fibroblasts) was 0.370 ± 0.07 and the “μ grams, Without Peptides” value (human fibroblasts) was 82 μ grams. For the same substance, the “Absorbance, Without Peptides” value (human fibroblasts) was 0.071 ± 0.013.
